Experimental data reported in patent US10336761B2, “TGFβ receptor antagonist” (BRISTOL-MYERS SQUIBB COMPANY, priority 2015, dated 2019).

target: HIS-TGFβR1 T204D (Homo sapiens (Human), UniProt P36897, T204D); assay: HTRF probe-displacement assay, HIS-TGFβR1 T204D; assay type: binding; conditions: 1 hour at room temperature
Sequence (P36897 34-503 T204D): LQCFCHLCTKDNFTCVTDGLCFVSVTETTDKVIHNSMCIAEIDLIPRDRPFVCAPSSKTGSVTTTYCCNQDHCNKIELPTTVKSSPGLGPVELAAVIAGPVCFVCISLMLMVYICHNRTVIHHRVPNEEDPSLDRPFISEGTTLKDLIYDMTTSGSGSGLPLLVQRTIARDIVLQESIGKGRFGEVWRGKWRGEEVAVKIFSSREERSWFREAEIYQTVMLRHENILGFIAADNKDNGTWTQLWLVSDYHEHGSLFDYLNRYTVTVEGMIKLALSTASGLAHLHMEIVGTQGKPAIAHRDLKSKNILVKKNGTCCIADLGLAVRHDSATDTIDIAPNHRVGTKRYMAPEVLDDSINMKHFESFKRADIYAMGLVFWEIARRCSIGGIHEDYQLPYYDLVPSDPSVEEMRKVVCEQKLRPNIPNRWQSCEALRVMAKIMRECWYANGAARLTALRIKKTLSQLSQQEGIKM

SMILES | IC50 [µM]
COc1cccc(-c2nc(Nc3ccncc3)c3c(C)ccn3n2)n1 [Example 16, N-[2-(6-methoxypyridin-2-yl)-5-methylpyrrolo[2,1-f][1,2,4]triazin-4-yl]pyridin-4-amine] | 0.0094
Fc1cccc(-c2nc(Nc3ccncc3F)c3cccn3n2)n1 [Example 14, 3-fluoro-N-[2-(6-fluoropyridin-2-yl)pyrrolo[2,1-f][1,2,4]triazin-4-yl]pyridin-4-amine] | 0.00079
COc1cccc(-c2nc(Nc3ccncc3F)c3cc(CCCCN4CCN(C)CC4)cn3n2)n1 [Example 43, 3-fluoro-N-[2-(6-methoxypyridin-2-yl)-6-[4-(4-methylpiperazin-1-yl)butyl]pyrrolo[2,1-f][1,2,4]triazin-4-yl]pyridin-4-amine] | 2.2
CCNC(=O)Nc1cc2c(Nc3ccncc3F)nc(-c3cccc(OC)n3)nn2c1 [Example 72, 3-ethyl-1-{4-[(3-fluoropyridin-4-yl)amino]-2-(6-methoxypyridin-2-yl)pyrrolo[2,1-f][1,2,4]triazin-6-yl}urea] | 0.37
Fc1cnccc1Nc1nc(-c2ccccn2)nn2ccc(CNCCCN3CCOCC3)c12 [Example 246, 3-fluoro-N-[5-({[3-(morpholin-4-yl)propyl]amino}methyl)-2-(pyridin-2-yl)pyrrolo[2,1-f][1,2,4]triazin-4-yl]pyridin-4-amine] | 0.0039
O=C(NCCCN1CCCC1=O)c1cnccc1Nc1nc(-c2ccccn2)nn2cccc12 [Example 149, N-[3-(2-oxopyrrolidin-1-yl)propyl]-4-{[2-(pyridin-2-yl)pyrrolo[2,1-f][1,2,4]triazin-4-yl]amino}pyridine-3-carboxamide] | 0.049
Fc1cnccc1Nc1nc(-c2ccccn2)nn2ccc(CNC34CC5CC(CC(C5)C3)C4)c12 [Example 282, N-(5-{[(adamantan-1-yl)amino]methyl}-2-(pyridin-2-yl)pyrrolo[2,1-f][1,2,4]triazin-4-yl)-3-fluoropyridin-4-amine] | 0.015
COc1cccc(-c2nc(Nc3ccncc3F)c3ccc(F)n3n2)n1 [Example 41, 3-fluoro-N-[7-fluoro-2-(6-methoxypyridin-2-yl)pyrrolo[2,1-f][1,2,4]triazin-4-yl]pyridin-4-amine] | 0.087
Fc1cnccc1Nc1nc(-c2ccccn2)nn2ccc(CNCc3ccc4c(c3)OCO4)c12 [Example 294, N-(5-{[(2H-1,3-benzodioxol-5-ylmethyl)amino]methyl}-2-(pyridin-2-yl)pyrrolo[2,1-f][1,2,4]triazin-4-yl)-3-fluoropyridin-4-amine] | 0.0004
O=C(NC1CCOCC1)c1cnccc1Nc1nc(-c2cccc(C(F)F)n2)nn2cccc12 [Example 178, 4-({2-[6-(difluoromethyl)pyridin-2-yl]pyrrolo[2,1-f][1,2,4]triazin-4-yl}amino)-N-(oxan-4-yl)pyridine-3-carboxamide] | 0.22
COc1cccc(-c2nc(Nc3ccncc3N)c3cccn3n2)n1 [Example 95, 4-N-[2-(6-methoxypyridin-2-yl)pyrrolo[2,1-f][1,2,4]triazin-4-yl]pyridine-3,4-diamine] | 0.02
NC(=O)c1cnccc1Nc1nc(-c2cccc(C(F)F)n2)nn2cccc12 [Example 228, 4-({2-[6-(difluoromethyl)pyridin-2-yl]pyrrolo[2,1-f][1,2,4]triazin-4-yl}amino)pyridine-3-carboxamide] | 0.0016
Cc1cccc(-c2nc(Nc3ccncc3C(=O)NCCCN3CCS(=O)(=O)CC3)c3cccn3n2)n1 [Example 36, N-(3-(1,1-dioxidothiomorpholino)propyl)-4-((2-(6-methylpyridin-2-yl)pyrrolo[2,1-f][1,2,4]triazin-4-yl)amino)nicotinamide] | 0.003
COc1cccc(-c2nc(Nc3ccncc3F)c3c(CNCCN4CCCC4)ccn3n2)n1 [Example 119, 3-fluoro-N-[2-(6-methoxypyridin-2-yl)-5-({[2-(pyrrolidin-1-yl)ethyl]amino}methyl)pyrrolo[2,1-f][1,2,4]triazin-4-yl]pyridin-4-amine] | 0.063
COc1cccc(-c2nc(Nc3ccncc3F)c3cc(NC(=O)CN4CCOCC4)cn3n2)n1 [Example 106, N-{4-[(3-fluoropyridin-4-yl)amino]-2-(6-methoxypyridin-2-yl)pyrrolo[2,1-f][1,2,4]triazin-6-yl}-2-(morpholin-4-yl)acetamide] | 1.4
CN1CCN(Cc2ccn3nc(-c4cccc(C(F)(F)F)n4)nc(Nc4ccncc4F)c23)CC1 [Example 26, 3-fluoro-N-{5-[(4-methylpiperazin-1-yl)methyl]-2-[6-(trifluoromethyl)pyridin-2-yl]pyrrolo[2,1-f][1,2,4]triazin-4-yl}pyridin-4-amine] | 0.032
Fc1c(Nc2nc(-c3cccc(C(F)F)n3)nn3cccc23)ccnc1Cl [Example 7, 2-chloro-N-{2-[6-(difluoromethyl)pyridin-2-yl]pyrrolo[2,1-f][1,2,4]triazin-4-yl}-3-fluoropyridin-4-amine] | 0.088
CC(C)NC(=O)c1cnccc1Nc1nc(-c2cccc(C(F)F)n2)nn2cccc12 [Example 194, 4-({2-[6-(difluoromethyl)pyridin-2-yl]pyrrolo[2,1-f][1,2,4]triazin-4-yl}amino)-N-(propan-2-yl)pyridine-3-carboxamide] | 0.11
O=C(NCCN1CCNCC1)c1cnccc1Nc1nc(-c2ccccn2)nn2cccc12 [Example 151, N-[2-(piperazin-1-yl)ethyl]-4-{[2-(pyridin-2-yl)pyrrolo[2,1-f][1,2,4]triazin-4-yl]amino}pyridine-3-carboxamide] | 0.049
CC(C)(O)CNCc1ccn2nc(-c3cccc(C(F)(F)F)n3)nc(Nc3ccncc3F)c12 [Example 124, 1-[({4-[(3-fluoropyridin-4-yl)amino]-2-[6-(trifluoromethyl)pyridin-2-yl]pyrrolo[2,1-f][1,2,4]triazin-5-yl}methyl)amino]-2-methylpropan-2-ol] | 0.006
Cc1cccc(-c2nc(Nc3ccncc3C(=O)NC(C)(C)CO)c3cccn3n2)n1 [Example 157, N-(1-hydroxy-2-methylpropan-2-yl)-4-{[2-(6-methylpyridin-2-yl)pyrrolo[2,1-f][1,2,4]triazin-4-yl]amino}pyridine-3-carboxamide] | 0.034
CCOC(=O)c1cc2c(Nc3ccncc3)nc(-c3cccc(C)n3)nn2c1 [Example 216, Ethyl 2-(6-methylpyridin-2-yl)-4-[(pyridin-4-yl)amino]pyrrolo[2,1-f][1,2,4]triazine-6-carboxylate] | 0.033
CC(=O)Nc1cc(Nc2nc(-c3ccc(F)c(C)n3)nn3cccc23)c(F)cn1 [Example 333, N-(5-fluoro-4-{[2-(5-fluoro-6-methylpyridin-2-yl)pyrrolo[2,1-f][1,2,4]triazin-4-yl]amino}pyridin-2-yl)acetamide] | 0.0036
CCc1nnc(CNC(=O)c2cnccc2Nc2nc(-c3cccc(C(F)F)n3)nn3cccc23)o1 [Example 182, 4-({2-[6-(difluoromethyl)pyridin-2-yl]pyrrolo[2,1-f][1,2,4]triazin-4-yl}amino)-N-[(5-ethyl-1,3,4-oxadiazol-2-yl)methyl]pyridine-3-carboxamide] | 0.016
COc1cccc(-c2nc(Nc3ccncc3F)c3c(CCO)ccn3n2)n1 [Example 46, 2-{4-[(3-fluoropyridin-4-yl)amino]-2-(6-methoxypyridin-2-yl)pyrrolo[2,1-f][1,2,4]triazin-5-yl}ethan-1-ol] | 0.003
